Measured values taken from US20230063462A1, “SULFONIMIDAMIDE COMPOUNDS AND COMPOSITIONS FOR TREATING CONDITIONS ASSOCIATED WITH NLRP ACTIVITY” (NOVARTIS AG, priority 2019, published 2023).

System: THP-1 cells
Assay: hTHP-1 assay: gramicidin-stimulated IL-1β detection in PMA-treated THP-1 cells
Type: cell-based, human
Details: Table B2, 10% FBS

Row | IC50 (class symbol) [nM] | IC50 (numeric value) [nM] | Compound
1 | 8 to 40 | 13.6 | C[C@H](O)Cn1cc(F)c(S(N)(=O)=NC(=O)Nc2c3c(nc4c2CCC42CC2)CCC3)n1 (single isomer, unassigned) [Example 896, (R) or (S)-4-fluoro-1-((S)-2-hydroxypropyl)-N′-((1′,5′,6′,7′-tetrahydro-2′H-spiro [cyclopropane-1,3′-dicyclopenta[b,e]pyridin]-8′-yl)carbamoyl)-1H-pyrazole-3-sulfonimidamide]
2 | 200 to 1000 | 310 | C[C@H](O)Cn1cc(F)c(S(N)(=O)=NC(=O)Nc2c3c(nc4c2CCC42CC2)CCC3)n1 (single isomer, unassigned) [Example 897, (S) or (R)-4-fluoro-1-((S)-2-hydroxypropyl)-N′-((1′,5′,6′,7′-tetrahydro-2′H-spiro [cyclopropane-1,3′-dicyclopenta[b,e]pyridin]-8′-yl)carbamoyl)-1H-pyrazole-3-sulfonimidamide]
